According to paper PMC10709440, “High-throughput ligand profile characterization in novel cell lines expressing seven heterologous insect olfactory receptors for the detection of volatile plant biomarkers” (Scientific Reports, 2023):
Like-named read-outs stand apart in the source and are kept apart here.

Key:
Drosophila OR85b = target: T1, Drosophila OR85b (Drosophila melanogaster, UniProt Q9VHQ7); experiment: Calcium ion fluorescence (GCaMP6) assay, OR85b stable HEK293 cell line; type: cell-based; conditions: for Average response: VUAA1-normalized response, mean of biological replicates; for DF norm AVERAGE OR85b: threshold 0.05, below shown as 0
T1 construct: expressed in transfected cells
T1 sequence (Q9VHQ7 1-390): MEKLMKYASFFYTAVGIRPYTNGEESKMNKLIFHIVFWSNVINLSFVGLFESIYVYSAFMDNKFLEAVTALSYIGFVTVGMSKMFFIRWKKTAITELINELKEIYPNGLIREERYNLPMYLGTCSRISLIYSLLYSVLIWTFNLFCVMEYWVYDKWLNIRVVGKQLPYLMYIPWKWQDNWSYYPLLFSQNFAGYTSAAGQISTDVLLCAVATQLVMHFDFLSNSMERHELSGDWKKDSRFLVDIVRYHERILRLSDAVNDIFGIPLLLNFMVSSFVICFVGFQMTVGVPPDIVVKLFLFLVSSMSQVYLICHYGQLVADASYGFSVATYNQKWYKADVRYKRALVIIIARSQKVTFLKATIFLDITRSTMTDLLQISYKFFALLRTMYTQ
T1 sequence (Q9VNB5 1-486 partner): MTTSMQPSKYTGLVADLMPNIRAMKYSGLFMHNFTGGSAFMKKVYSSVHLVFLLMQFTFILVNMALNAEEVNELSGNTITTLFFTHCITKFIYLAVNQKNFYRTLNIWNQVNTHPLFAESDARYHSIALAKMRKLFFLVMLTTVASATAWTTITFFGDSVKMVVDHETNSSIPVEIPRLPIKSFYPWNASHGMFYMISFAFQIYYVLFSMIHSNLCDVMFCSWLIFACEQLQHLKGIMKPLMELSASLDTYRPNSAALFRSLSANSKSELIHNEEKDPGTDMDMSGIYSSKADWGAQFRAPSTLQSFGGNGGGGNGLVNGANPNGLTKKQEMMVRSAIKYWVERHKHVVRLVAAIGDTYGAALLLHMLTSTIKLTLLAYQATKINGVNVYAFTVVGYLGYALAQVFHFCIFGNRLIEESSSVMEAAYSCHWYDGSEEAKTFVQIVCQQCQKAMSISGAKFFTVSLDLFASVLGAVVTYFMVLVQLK
Outline: (§1)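 HEK293 lines stably expressing each Drosophila OR with GCaMP6, doxycycline-induced (1 μg/mL) 48 or 72 h. Fluorescence recorded 5 s baseline then 30 s after VOC injection at pH 7.3; ΔF=(FMAX−F0)/F0, normalized to 50 µM VUAA1 response per line, triplicate wells averaged; concentration series 0.01–100 μM.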

Drosophila OR10a = target: T2, Drosophila OR10a (Drosophila melanogaster, UniProt Q9VYZ1); experiment: Calcium ion fluorescence (GCaMP6) assay, OR10a stable HEK293 cell line; type: cell-based; conditions: for DF norm AVERAGE OR10a: threshold 0.05, below shown as 0
T2 construct: expressed in transfected cells
T2 sequence (Q9VYZ1 1-406): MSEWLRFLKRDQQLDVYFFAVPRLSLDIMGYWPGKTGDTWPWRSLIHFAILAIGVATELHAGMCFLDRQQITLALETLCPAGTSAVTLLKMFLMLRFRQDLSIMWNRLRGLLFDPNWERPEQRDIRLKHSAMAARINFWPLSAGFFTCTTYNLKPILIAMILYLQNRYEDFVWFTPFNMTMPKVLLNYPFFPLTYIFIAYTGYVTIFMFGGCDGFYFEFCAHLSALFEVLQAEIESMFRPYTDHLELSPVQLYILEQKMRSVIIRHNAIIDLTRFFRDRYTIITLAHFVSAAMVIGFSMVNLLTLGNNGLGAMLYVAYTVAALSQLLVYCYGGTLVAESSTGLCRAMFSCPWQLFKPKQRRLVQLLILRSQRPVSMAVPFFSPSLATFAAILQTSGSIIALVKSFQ
T2 sequence (Q9VNB5 1-486 partner): T1 sequence (Q9VNB5 1-486 partner)
Outline: as §1

[1] = HEK293, read-out: OR85b response (VUAA1-normalized response)
[2] = ligand concentration 1 (unit not given)
[3] = ligand concentration 10 (unit not given)
[4] = ligand concentration 100 (unit not given)
[5] = HEK293, read-out: OR10a Average response (VUAA1-normalized), 1 μM VOC, 50 μM VUAA1 = 1, responses not exceeding 0.05 considered 0
[6] = HEK293, read-out: OR10a Average response (VUAA1-normalized), 10 μM VOC, 50 μM VUAA1 = 1, responses not exceeding 0.05 considered 0
[7] = HEK293, read-out: OR10a Average response (VUAA1-normalized), 100 μM VOC, 50 μM VUAA1 = 1, responses not exceeding 0.05 considered 0

Row | Compound | Average response (Drosophila OR85b; OR85b cell line, cc. 1 µM) | Average response (Drosophila OR85b; OR85b cell line, cc. 10 µM) | Average response (Drosophila OR85b; OR85b cell line, cc. 100 µM) | DF norm AVERAGE OR85b (Drosophila OR85b; [2]) | DF norm AVERAGE OR85b (Drosophila OR85b; [3]) | DF norm AVERAGE OR85b (Drosophila OR85b; [4]) | activation at 1 µM (Drosophila OR10a; [5]) [%] | activation at 10 µM (Drosophila OR10a; [6]) [%] | activation at 100 µM (Drosophila OR10a; [7]) [%] | DF norm AVERAGE OR10a (Drosophila OR10a; [2]) | DF norm AVERAGE OR10a (Drosophila OR10a; [3]) | DF norm AVERAGE OR10a (Drosophila OR10a; [4]) | further results
1 | CC/C=C\CCO [E-3-hexenol] | – | – | – | – | – | – | – | – | – | – | – | – | OR85b response (VUAA1-normalized response) (Drosophila OR85b; VOC concentration 1 μM): 0.00; OR85b response (VUAA1-normalized response) (Drosophila OR85b; VOC concentration 10 μM): 0.00; OR85b response (VUAA1-normalized response) (Drosophila OR85b; VOC concentration 100 μM): 0.00; OR10a response (VUAA1-normalized response) (Drosophila OR10a; VOC concentration 1 μM): 0.00; OR10a response (VUAA1-normalized response) (Drosophila OR10a; VOC concentration 10 μM): 0.00; OR10a response (VUAA1-normalized response) (Drosophila OR10a; VOC concentration 100 μM): 0.074
2 | CC1=CC[C@@H](C(C)(C)O)CC1 [alpha-terpineol] | 0.05 | 0.03 | 0.02 | 0 | 0 | 0 | 3.64 | 2.71 | 0 | 0 | 0 | 0 | activation at 1 µM (Drosophila OR85b; [1]): 0%; activation at 10 µM (Drosophila OR85b; [1]): 0%; activation at 100 µM (Drosophila OR85b; [1]): 0%; activation at 1 µM (Drosophila OR10a; HEK293, read-out: OR10a response (VUAA1-normalized response), VOC concentration 1 μM): 0%; activation at 10 µM (Drosophila OR10a; HEK293, read-out: OR10a response (VUAA1-normalized response), VOC concentration 10 μM): 0%; activation at 100 µM (Drosophila OR10a; HEK293, read-out: OR10a response (VUAA1-normalized response), VOC concentration 100 μM): 0%
3 | Cc1ccc(C)cc1 [p-xylene] | 0.0373 | 0.15 | 0.06 | 0 | 0.1515 | 0.06066 | 0 | 0 | 6.41 | 0 | 0 | 0.06412 | OR85b response (VUAA1-normalized) at 1 μM (Drosophila OR85b; OR85b cell line, VOC concentration 1 μM): 0.00; OR85b response (VUAA1-normalized) at 10 μM (Drosophila OR85b; OR85b cell line, VOC concentration 10 μM): 0.15; OR85b response (VUAA1-normalized) at 100 μM (Drosophila OR85b; OR85b cell line, VOC concentration 100 μM): 0.06; OR10a response (VUAA1-normalized) at 1 μM (Drosophila OR10a; OR10a cell line, VOC concentration 1 μM): 0.00; OR10a response (VUAA1-normalized) at 10 μM (Drosophila OR10a; OR10a cell line, VOC concentration 10 μM): 0.00; OR10a response (VUAA1-normalized) at 100 μM (Drosophila OR10a; OR10a cell line, VOC concentration 100 μM): 0.0641
